Source: US20060240986A1, “Herbicidal method” (Sumitomo Chemical Company, Limited, priority 2005, published 2006)

Columns and labels:
peanut (Arachis hypogea) = experiment: Test Example 1, peanut field: phytotoxicity against crop; type: in vivo; conditions: peanut seeded 7 days after application, examined 10 days after seeding
Description: (§1) Plastic pots each having a diameter of 18 cm and depth of 14 cm were filled with upland soil, and then seeded with yellow nutsedge (Cyperus esculentus), hemp sesbania (Seshania exaltata) and sicklepod (Cassia obtusifolia). In a greenhouse, they were grown for 12 days. Flumioxazin water dispersible granules (commercial name: Valor SX, produced by Valent U.S.A.), Imazosulfuron emulsifiable concentrate (produced by mixing well 5 parts of Imazosulfuron, 65 parts of cyclohexanone, 13 parts of Sorpol 2680 (Toho Chemical's product) and 17 parts of dimethylformamide) and a mixture of the Flumioxazin water dispersible granules and the Imazosulfuron emulsifiable concentrate were independently diluted in their designated amounts with water. Each dilution was uniformly sprayed over the test plants with a small sprayer. […] Further, the pots were seeded with peanut (Arachis hypogea) 7 days after the application, and the phytotoxicity against the crop was examined 10 days after the seeding.

[1] = system: barnyardgrass (Echinochloa crus-gall); experiment: Test Example 2, vegetable field: herbicidal activity; type: in vivo, Echinochloa crus-galli; conditions: granules to soil surface the day after seeding, grown 29 days
Text: (§2) Plastic pots each having a diameter of 18 cm and depth of 14 cm were filled with upland soil, and then seeded with barnyardgrass (Echinochloa crus-gall) and onion (Allium cepa).

[2] = system: strawberry (Fragaria ananassa); experiment: Test Example 5, vegetable field: phytotoxicity; type: in vivo; conditions: 40 g/ha active ingredient; transplanted seedlings; granules to soil surface the next day; 17 days in greenhouse
Text: (§3) Plastic pots each having a diameter of 18 cm and depth of 14 cm were filled with upland soil, seedlings of strawberry (Fragaria ananassa) was transplanted and then seeded with giant foxtail (Setaria faberi).

[3] = system: yellow nutsedge (Cyperus esculentus); experiment: Test Example 1, peanut field: herbicidal activity; type: in vivo; conditions: sprayed over plants grown 12 days, examined 7 days after application
Description: as §1

[4] = system: hemp sesbania (Seshania exaltata); experiment: Test Example 1, peanut field: herbicidal activity; type: in vivo; conditions: sprayed over plants grown 12 days, examined 7 days after application
Description: as §1

[5] = system: sicklepod (Cassia obtusifolia); experiment: Test Example 1, peanut field: herbicidal activity; type: in vivo; conditions: sprayed over plants grown 12 days, examined 7 days after application
Description: as §1

kudzu (Pueraria lobata) = experiment: Test Example 12, non-cultivated land: herbicidal activity; type: in vivo; conditions: sprayed to soil surface the day after seeding, 14 days in greenhouse
Text: Plastic pots each having a diameter of 9 cm and depth of 7 cm were filled with upland soil, and then seeded with kudzu (Pueraria lobata).

[6] = system: giant foxtail (Setaria faberi); experiment: Test Example 5, vegetable field: herbicidal activity; type: in vivo; conditions: granules to soil surface the day after seeding, 17 days in greenhouse
Text: as §3

onion (Allium cepa) = experiment: Test Example 2, vegetable field: phytotoxicity; type: in vivo; conditions: 20 g/ha active ingredient; granules to soil surface the day after seeding; grown 29 days
Text: as §2

Row | SMILES | Phytotoxicity against crop Peanut (peanut (Arachis hypogea); 30 g/ha active ingredient) | Phytotoxicity against crop Peanut (peanut (Arachis hypogea); 60 g/ha active ingredient) | Herbicidal activity Barnyardgrass ([1]; 20 g/ha active ingredient) | Phtotoxicity strawberry [2] | Herbicidal activity Ce ([3]; 30 g/ha active ingredient) | Herbicidal activity Ce ([3]; 60 g/ha active ingredient) | Herbicidal activity Se ([4]; 30 g/ha active ingredient) | Herbicidal activity Se ([4]; 60 g/ha active ingredient) | Herbicidal activity Co ([5]; 30 g/ha active ingredient) | Herbicidal activity Co ([5]; 60 g/ha active ingredient) | Herbicidal activity kudzu (kudzu (Pueraria lobata); 100 g/ha active ingredient) | Herbicidal activity giant foxtail ([6]; 40 g/ha active ingredient) | Phtotoxicity Onion (onion (Allium cepa)) | Herbicidal activity Barnyardgrass ([1]; 50 g/ha active ingredient) | Herbicidal activity Ce ([3]; 120 g/ha active ingredient) | Herbicidal activity Se ([4]; 120 g/ha active ingredient) | Herbicidal activity Co ([5]; 120 g/ha active ingredient) | Herbicidal activity kudzu (kudzu (Pueraria lobata); 500 g/ha active ingredient) | Herbicidal activity giant foxtail ([6]; 50 g/ha active ingredient) | Herbicidal activity giant foxtail ([6]; 250 g/ha active ingredient)
1 | C#CCN1C(=O)COc2cc(F)c(N3C(=O)C4=C(CCCC4)C3=O)cc21 [Flumioxazin, N-(7-fluoro-3,4-dihydro-3-oxo-4-prop-2-ynyl-2H-1,4-benzoxadin-6-yl)cyclohex-1-ene-1,2-dicarboxamide] | No damage | No damage | 1 | No damage | 0 | 0 | 1 | 1 | 0 | 1 | 1 | 2 | No damage | – | – | – | – | – | – | –
2 | COc1cc(OC)nc(NC(=O)NS(=O)(=O)c2c(Cl)nc3ccccn23)n1 [Imazosulfuron, 1-(2-chloroimidazo[1,2-a]pyridin-3-ylsulfonyl)-3-(4,6-dimethoxypyrimidin-2-yl)urea] | – | – | – | – | – | 2 | – | 2 | – | 1 | 1 | – | – | 0 | 2 | 3 | 1 | 2 | 0 | 1
